Reference: patent US20140155362A1, “BHQ-CONJUGATES, AND RELATED COMPOUNDS, METHODS OF MAKING THE SAME, AND METHODS OF USE THEREOF” (priority 2011, published 2014)
Where “and” joins values, the source holds several entries; their conditions need not be identical. Equal values may be shown once.

How the values were obtained:
Type in all cases: physicochemical
[1] = Determination of the dark hydrolysis rate (τdark) in KMOPS; conditions: for τdark (time constant for dark hydrolysis): 100 μM in KMOPS, stored in the dark
Protocol: Determination of the Dark Hydrolysis Rate (τdark).
Three 100-μM solutions of BHQ-O-5HT in KMOPS were created and stored in the dark. Aliquots (20 μL) were removed periodically from each solution and analyzed by HPLC. The percents remaining for each time point for each solution were averaged and plotted versus time. A simple single exponential decay curve provided the best fit. The time constant for dark hydrolysis (τdark) was determined to be 260 h. The experiment was repeated for BHQ-N-5HT, and the time constant for dark hydrolysis (τdark) was determined to be 300 h.
Three 100-μM solutions of BHQ-VAA in KMOPS were created and stored in the dark. Aliquots (20 μL) were removed periodically from each solution and analyzed by HPLC. The percents remaining for each time point for each solution were averaged and plotted versus time. A simple single exponential decay curve provided the best fit. The time constant for dark hydrolysis (τdark) was determined to be 140 h.

[2] = Determination of the uncaging quantum efficiency (Qu), 1-photon photolysis at 365 nm; conditions: for Qu (uncaging quantum efficiency): 365±15 nm, KMOPS
Protocol: Determination of the Uncaging Quantum Efficiency (Qu).
(§1) The quantum efficiency was calculated using the equation Qu=(Iσt90%)^−1, where I is the irradiation intensity in einstein·cm^−2, σ is the decadic extinction coefficient (1,000 times ε) and t90% is the time in seconds required for the conversion of 90% of the starting material to product. To find t90%, a solution of BHQ-O-5HT in KMOPS was prepared and placed in a cuvette along with a small stir bar. While stirring, the solution was irradiated with UV light from a mercury lamp (Spectroline SB-100P, Spectronics Corporation) equipped with two glass filters (CS0-52, CS7-60, Ace Glass) so that the wavelength was restricted to 365±15 nm. Periodically, 20-μL aliquots were removed and analyzed by HPLC. The time points collected were as follows: 0, 5, 10, 20, 30, 60, 90, and 120 s. Percent BHQ-O-5HT remaining was plotted verses time of photolysis. A simple single exponential decay curve provided the best fit for the data and was used to extrapolate t90%. The lamp's UV intensity I was measured using potassium ferrioxalate actinometry. Initially, 6 mM potassium ferrioxalate solution (3 mL) was irradiated with the mercury lamp for 60 s. A portion of this solution (2 mL) was combined with aqueous buffer (3 mL), 0.1% phenanthroline solution (3 mL), and 2M KF solution (1 mL) in a 25-mL volumetric flask. Deionized water was added to generate a 25 mL solution. A blank solution was also prepared using the same method, but the potassium ferrioxalate used in the blank was not irradiated. Both solutions were allowed to sit for one hour and the blank was then used as a baseline against which the absorbance of the irradiated solution was measured at 510 nm. The following equation was used to calculate lamp intensity: […]
where V3 is the volume of dilution (25 mL), V2 is the volume of irradiated potassium ferrioxalate solution taken for analysis (2 mL), ΔD510 is the absorption of the solution at 510 nm, Σ510 is the actinometry extinction coefficient (1.11×10^4 M^−1 cm^−1),)Fe is the quantum yield for production of ferrous ions from potassium ferrioxalate at 365 nm, and t represents the time of irradiation. The ΔD510 value used for calculations is the average of two measurements taken before and after irradiation of BHQ-O-5HT. Compilation of the measurements yielded an uncaging quantum efficiency Qu, of 0.30. The experiment was repeated for BHQ-N-5HT, and compilation of the measurements yielded an uncaging quantum efficiency Qu of 0.10.
as §1, with “c)” for “ε)”, “BHQ-VAA” for “BHQ-O-5HT”, “irradiated.” for “irradiated. Both solutions were allowed to sit for one hour and the blank was then used as a baseline against which the absorbance of the irradiated solution was measured at 510 nm. The following equation was used to calculate lamp intensity:”

[3] = Determination of absorbance maximum and molar extinction coefficient (ε) in KMOPS buffer; conditions: for ε (molar extinction coefficient): at λmax
Protocol: Determination of the Molar Extinction Coefficient (ε).
A weighed portion of BHQ-O-5HT was dissolved in methanol. A measured aliquot of this solution was withdrawn and placed in KMOPS buffer (3.0 mL) and mixed thoroughly to generate a 100-μM solution of BHQ-O-5HT. The absorbance A of this solution at τmax=368 nm was measured. This method was repeated twice with different masses of BHQ-O-5HT.
Determination of the Molar Extinction Coefficient (s).
A weighed portion of BHQ-VAA was dissolved in methanol. A measured aliquot of this solution was withdrawn and placed in KMOPS buffer (3.0 mL) and mixed thoroughly to generate a 100-μM solution of BHQ-VAA. The absorbance A of this solution at λmax=368 nm was measured. This method was repeated twice with different masses of BHQ-VAA.

[4] = Table 1.1, KMOPS buffer, 100 μM
[5] = BHQ-OPh, previous unpublished work (Zhu & Dore)
[6] = Table 2.1, KMOPS buffer, 100 μM

## O=C(NCCc1c[nH]c2ccc(O)cc12)OCc1ccc2ccc(O)c(Br)c2n1 [BHQ-N-5HT]
[1]; Table 1.1
  τdark (time constant for dark hydrolysis): 300 h
[2]; Table 1.1
  Sensitivity Qu × ε: 210 M⁻¹ cm⁻¹
  Qu (uncaging quantum efficiency): 0.10
[3]; [4]
  λmax: 370 nm
  ε (molar extinction coefficient): 2,100 M^−1 cm^−1

## NCCc1c[nH]c2ccc(OCc3ccc4ccc(O)c(Br)c4n3)cc12 [BHQ-O-5HT]
[1]; Table 1.1
  τdark (time constant for dark hydrolysis): 260 h
[2]; Table 1.1
  Sensitivity Qu × ε: 600 M⁻¹ cm⁻¹
  Qu (uncaging quantum efficiency): 0.30
[3]; [4]
  λmax: 368 nm
  ε (molar extinction coefficient): 2,000 M^−1 cm^−1

## Oc1ccc2ccc(COc3ccccc3)nc2c1Br [BHQ-OPh]
[1]; simulated physiological conditions, dark
  time constant for hydrolysis in the dark τdark: 95 h
[2]; 1-photon photolysis at 365 nm, pH 7.2 KMOPS
  quantum efficiency Qu: 0.19
[3]; [5]
  ε: 3200 M⁻¹ cm⁻¹
  λmax: 369

## COc1cc(CNC(C)=O)ccc1OCc1ccc2ccc(O)c(Br)c2n1 [BHQ-VAA]
[1]; Table 2.1
  τdark (time constant for dark hydrolysis): 140 h
[2]; Table 2.1
  Sensitivity Qu × ε: 486 M⁻¹ cm⁻¹
  Qu (uncaging quantum efficiency): 0.18
[3]; [6]
  λmax: 368 nm and 370 nm
  ε (molar extinction coefficient): 2700 M⁻¹ cm⁻¹
